In patent publication US11304929B2, “Tosylacetate based compounds and derivatives thereof as PHGDH inhibitors” (priority 2017, dated 2022):

target: PHGDH (Homo sapiens (Human), UniProt O43175); assay: 3-Phosphoglycerate Dehydrogenase (PHGDH) Fluorescence Intensity Assay, run at two NAD/3-PG ratios: PHGDH_HIGH_NAD/3-PG (250 μM NAD/500 μM 3-PG) and PHGDH_500_NAD/3-PG (500 μM NAD/500 μM 3-PG); format: biochemical; details: 250 μM NAD/500 μM 3-PG; read-out: IC50 (PHGDH_HIGH_NAD/3-PG)
Sequence (O43175 2-533 limits assumed): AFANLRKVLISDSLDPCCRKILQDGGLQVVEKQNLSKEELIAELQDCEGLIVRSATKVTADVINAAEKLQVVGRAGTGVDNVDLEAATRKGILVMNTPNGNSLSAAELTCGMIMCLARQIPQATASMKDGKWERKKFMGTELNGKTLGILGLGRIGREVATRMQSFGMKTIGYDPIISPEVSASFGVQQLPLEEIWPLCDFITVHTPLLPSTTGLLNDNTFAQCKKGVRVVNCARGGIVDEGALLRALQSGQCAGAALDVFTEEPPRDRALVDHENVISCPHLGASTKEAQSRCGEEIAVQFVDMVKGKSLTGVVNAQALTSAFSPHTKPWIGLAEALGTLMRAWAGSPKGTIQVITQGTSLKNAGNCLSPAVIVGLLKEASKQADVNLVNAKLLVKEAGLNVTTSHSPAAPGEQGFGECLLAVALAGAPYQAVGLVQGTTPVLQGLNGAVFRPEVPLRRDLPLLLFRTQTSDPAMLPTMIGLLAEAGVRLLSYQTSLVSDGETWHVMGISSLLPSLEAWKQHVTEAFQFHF
Source text: This assay is used to identify compounds which inhibit the enzymatic activity of PHGDH which catalyzes the reaction of 3-Phosphoglycerate (3-PG) and NAD to 3-Phosphohydroxypyruvate and NADH.
The produced NADH is used in a coupled reaction for Diaphorase mediated reduction of Resazurin to Resorufin which can be measured in a Fluorescence Intensity readout.
The full length version of PHGDH enzyme was expressed in E. coli with an N-terminal HIS-tag and a TEV cleavage site.
The 3-Phosphoglycerate substrate was purchased from Sigma. NAD, Diaphorase and Resazurin were purchased from Sigma Aldrich.
Compounds are dispensed onto assay plates (black, low volume, flat bottom 384 well, Corning) using an Access Labcyte Workstation with the Labcyte Echo 55× from a DMSO solution. For the chosen highest assay concentration of 100 μM, 150 nl of compound solution are transferred from a 10 mM DMSO compound stock solution. A series of 11 concentrations (10 1:5 steps) is transferred for each compound.
The assay has been performed at two different NAD/3-PG ratios (final assay concentrations):
Plates are kept at room temperature. After 240 minutes incubation time the fluorescence signal is measured in a PerkinElmer Envision HTS Multilabel Reader with an excitation wavelength at 530-560 nm and an emission wavelength at 590 nm.
Each plate contains negative controls (diluted DMSO instead of test compound; reaction as described with PHGDH protein) and positive controls (diluted DMSO instead of test compound; reaction as described with buffer instead of PHGDH protein). Negative and positive control values are used for normalization.
IC50 values are calculated and analyzed in the MEGALAB IC50 application using a 4 parametric logistic model.

Question: Which IC50 does the source give for `Cc1cc(Cl)c2cc(C(=O)N[C@H](C)c3ccc(S(=O)(=O)CC(=O)OCC4COC4)cc3)n(C)c2c1` [Example 09-017, oxetan-3-ylmethyl 2-{4-[(1R)-1-[(4-chloro-1,6-dimethyl-1H-indol-2-yl)formamido]ethyl]benzenesulfonyl}acetate] here?
Answer: 0.177 µM

Question: For `C[C@H](C(=O)O)S(=O)(=O)c1ccc([C@@H](C)NC(=O)c2cc3cc(Cl)ccc3n2C)cc1` [Example 07-008, (2R)-2-{4-[(1R)-1-[(5-chloro-1-methyl-1H-indol-2-yl)formamido]ethyl]benzenesulfonyl}propanoic acid], which IC50 is on record?
Answer: 0.139 µM

Question: `Cc1cc(Cl)c2cc(C(=O)N[C@H](C)c3ccc(S(=O)(=O)CC(=O)OC(C)C)cc3)n(C)c2n1` [Example 01-036, propan-2-yl 2-{4-[(1R)-1-({4-chloro-1,6-dimethyl-1H-pyrrolo[2,3-b]pyridin-2-yl}formamido)ethyl]benzenesulfonyl}acetate] was tested. Which IC50 did it give?
Answer: 1.83 µM

Question: With `CC(C)OC(=O)CS(=O)(=O)c1ccc([C@@H](CO)NC(=O)c2cc(-c3ccc(F)cc3)nn2C)cc1` [Example 02-017, propan-2-yl 2-{4-[(1S)-1-{[3-(4-fluorophenyl)-1-methyl-1H-pyrazol-5-yl]formamido}-2-hydroxyethyl]benzenesulfonyl}acetate] as the molecule, how does the IC50 read?
Answer: 7.71 µM

Question: With `COC(=O)C[S+]([O-])c1ccc([C@@H](C)NC(=O)c2cc3c(Cl)cc(C)cc3n2C)cc1` (stereo partly drawn) [Example 11-009, methyl 2-{4-[(1R)-1-[(4-chloro-1,6-dimethyl-1H-indol-2-yl)formamido]ethyl]benzenesulfinyl}acetate] as the molecule, how does the IC50 read?
Answer: 0.612 µM

Question: How did the IC50 turn out when `C[C@@H](NC(=O)c1cc(-c2cccc3cc[nH]c23)nn1C)c1ccc(S(=O)(=O)CC(=O)O)cc1` [Example 04-003, 2-{4-[(1R)-1-{[3-(1H-indol-7-yl)-1-methyl-1H-pyrazol-5-yl]formamido}ethyl]benzenesulfonyl}acetic acid] was run?
Answer: 0.053 µM

Question: With `COC(=O)C(C)S(=O)(=O)c1ccc([C@@H](C)NC(=O)c2cc3cc(Cl)ccc3n2C)cc1` (stereo partly drawn) [Example 05-006, methyl 2-{4-[(1R)-1-[(5-chloro-1-methyl-1H-indol-2-yl)formamido]ethyl]benzenesulfonyl}propanoate] as the molecule, how does the IC50 read?
Answer: 3.05 µM

Question: Which IC50 does the source give for `CC(C)OC(=O)CS(=O)(=O)c1ccc([C@@H](C)NC(=O)c2cc(-c3ccc(Cl)c(Cl)c3)nn2C)cc1` [Example 02-014, propan-2-yl 2-{4-[(1R)-1-{[3-(3,4-dichlorophenyl)-1-methyl-1H-pyrazol-5-yl]formamido}ethyl]benzenesulfonyl}acetate] here?
Answer: 73.3 µM

Question: How did the IC50 turn out when `Cc1cc(Cl)c2cc(C(=O)N[C@H](CO)c3ccc(S(=O)(=O)CC(=O)O[C@H]4CCOC4)cc3)n(C)c2c1` [Example 09-030, (3S)-oxolan-3-yl 2-{4-[(1S)-1-[(4-chloro-1,6-dimethyl-1H-indol-2-yl)formamido]-2-hydroxyethyl]benzenesulfonyl}acetate] was run?
Answer: 0.085 µM

Question: Which IC50 does the source give for `COC(=O)C[S@+]([O-])c1ccc([C@@H](CO)NC(=O)c2cc3c(Cl)cc(C)cc3n2C)cc1` [Example 11-008, methyl 2-[(S)-4-[(1S)-1-[(4-chloro-1,6-dimethyl-1H-indol-2-yl)formamido]-2-hydroxyethyl]benzenesulfinyl]acetate] here?
Answer: 0.12 µM

Question: How did the IC50 turn out when `Cc1cc(Cl)c2cc(C(=O)N[C@H](C)c3ccc(S(=O)(=O)CC(=O)OCC(COC(=O)C(C)(C)C)COC(=O)C(C)(C)C)cc3)n(C)c2c1` [Example 09-015, 2-{[(2-{4-[(1R)-1-[(4-chloro-1,6-dimethyl-1H-indol-2-yl)formamido]ethyl]benzenesulfonyl}acetyl)oxy]methyl}-3-[(2,2-dimethylpropanoyl)oxy]propyl 2,2-dimethylpropanoate] was run?
Answer: 9.19 µM

Question: `COC(=O)CS(=O)(=O)c1ccc(C(C)NC(=O)c2cc3c(Cl)cc(I)cc3n2C)cc1` (stereo not shown) [Example 01-020, methyl 2-(4-{1-[(4-chloro-6-iodo-1-methyl-1H-indol-2-yl)formamido]ethyl}benzenesulfonyl)acetate] was tested. Which IC50 did it give?
Answer: 1.79 µM

Question: For `COC(C)(C)COC(=O)CS(=O)(=O)c1ccc([C@@H](C)NC(=O)c2cc3c(Cl)cc(C)cc3n2C)cc1` [Example 09-021, 2-methoxy-2-methylpropyl 2-{4-[(1R)-1-[(4-chloro-1,6-dimethyl-1H-indol-2-yl)formamido]ethyl]benzenesulfonyl}acetate], which IC50 is on record?
Answer: 0.574 µM

Question: How did the IC50 turn out when `CC(C)OC(=O)CS(=O)(=O)c1ccc([C@@H](C)NC(=O)c2cc3c(Cl)cc(N4CCN(C)CC4)cc3n2C)cc1` [Example 01-041, propan-2-yl 2-{4-[(1R)-1-{[4-chloro-1-methyl-6-(4-methylpiperazin-1-yl)-1H-indol-2-yl]formamido}ethyl]benzenesulfonyl}acetate] was run?
Answer: 3.14 µM

Question: For `COC(=O)C[S+]([O-])c1ccc([C@@H](C)NC(=O)c2cc3c(Cl)c(Cl)c(C)cc3n2C)cc1` (stereo partly drawn) [Example 11-001, methyl 2-{4-[(1R)-1-[(4,5-dichloro-1,6-dimethyl-1H-indol-2-yl)formamido]ethyl]benzenesulfinyl}acetate], which IC50 is on record?
Answer: 0.296 µM

Question: `Cc1cc(Cl)c2cc(C(=O)N[C@H](C)c3ccc(S(=O)(=O)CC(=O)O)cc3)n(C)c2c1C` [Example 03-003, 2-{4-[(1R)-1-[(4-chloro-1,6,7-trimethyl-1H-indol-2-yl)formamido]ethyl]benzenesulfonyl}acetic acid] was tested. Which IC50 did it give?
Answer: 0.013 µM

Question: Which IC50 does the source give for `CCOC(=O)CS(=O)(=O)c1ccc([C@@H](C)NC(=O)c2cc(-c3ccccc3)nn2C)cc1` [Example 02-003, ethyl 2-{4-[(1R)-1-[(1-methyl-3-phenyl-1H-pyrazol-5-yl)formamido]ethyl]benzenesulfonyl}acetate] here?
Answer: 3.18 µM

Question: For `CC(=O)OCC(CO)COC(=O)CS(=O)(=O)c1ccc([C@@H](C)NC(=O)c2cc3c(Cl)cc(C)cc3n2C)cc1` (stereo partly drawn) [Example 09-024, 2-[(acetyloxy)methyl]-3-hydroxypropyl 2-{4-[(1R)-1-[(4-chloro-1,6-dimethyl-1H-indol-2-yl)formamido]ethyl]benzenesulfonyl}acetate], which IC50 is on record?
Answer: 0.247 µM

Question: `COC(=O)C1(S(=O)(=O)c2ccc([C@@H](C)NC(=O)c3cc(-c4ccc(F)cc4)nn3C)cc2)CCCC1` [Example 06-003, methyl 1-{4-[(1R)-1-{[3-(4-fluorophenyl)-1-methyl-1H-pyrazol-5-yl]formamido}ethyl]benzenesulfonyl}cyclopentane-1-carboxylate] was tested. Which IC50 did it give?
Answer: 11.7 µM

Question: Which IC50 does the source give for `CC(C)OC(=O)C(C)(C)S(=O)(=O)c1ccc([C@@H](C)NC(=O)c2cc(-c3ccccc3)nn2C)cc1` [Example 06-005, propan-2-yl 2-methyl-2-{4-[(1R)-1-[(1-methyl-3-phenyl-1H-pyrazol-5-yl)formamido]ethyl]benzenesulfonyl}propanoate] here?
Answer: 15.9 µM

Question: With `CC(NC(=O)c1cc2c(Cl)cc(I)cc2n1C)c1ccc(S(=O)(=O)CC(=O)O)cc1` (stereo not shown) [Example 03-008, 2-(4-{1-[(4-chloro-6-iodo-1-methyl-1H-indol-2-yl)formamido]ethyl}benzenesulfonyl)acetic acid] as the molecule, how does the IC50 read?
Answer: 0.024 µM

Question: How did the IC50 turn out when `Cc1cc2c(cc(C(=O)N[C@H](CO)c3ccc([S@+]([O-])CC(=O)O)cc3)n2C)c(Cl)c1Cl` [Example 12-002, 2-[(R)-4-[(1S)-1-[(4,5-dichloro-1,6-dimethyl-1H-indol-2-yl)formamido]-2-hydroxyethyl]benzenesulfinyl]acetic acid] was run?
Answer: 0.003 µM

Question: With `CCOC(=O)CS(=O)(=O)c1ccc(CNC(=O)c2cc3c(Cl)cc(C)cc3n2C)cc1` [Example 01-032, ethyl 2-(4-{[(4-chloro-1,6-dimethyl-1H-indol-2-yl)formamido]methyl}benzenesulfonyl)acetate] as the molecule, how does the IC50 read?
Answer: 5.94 µM

Question: `CC(C)OC(=O)C(C)S(=O)(=O)c1ccc([C@@H](CO)NC(=O)c2cc(-c3ccc(F)cc3)nn2C)cc1` (stereo partly drawn) [Example 06-007, propan-2-yl 2-{4-[(1S)-1-{[3-(4-fluorophenyl)-1-methyl-1H-pyrazol-5-yl]formamido}-2-hydroxyethyl]benzenesulfonyl}propanoate] was tested. Which IC50 did it give?
Answer: 29.6 µM

Question: How did the IC50 turn out when `Cc1cc(Cl)c2cc(C(=O)N[C@H](CO)c3ccc([S+]([O-])CC(=O)OC(C)C)cc3)n(C)c2c1` (stereo partly drawn) [Example 13-008, propan-2-yl 2-{4-[(1S)-1-[(4-chloro-1,6-dimethyl-1H-indol-2-yl)formamido]-2-hydroxyethyl]benzenesulfinyl}acetate] was run?
Answer: 0.695 µM

Question: Which IC50 does the source give for `COC(=O)CS(=O)(=O)c1ccc([C@@H](C)NC(=O)c2cc(-c3ccccc3)nn2C)cc1` [Example 02-002, methyl 2-{4-[(1R)-1-[(1-methyl-3-phenyl-1H-pyrazol-5-yl)formamido]ethyl]benzenesulfonyl}acetate] here?
Answer: 1.36 µM

Question: `Cc1cc(Cl)c2cc(C(=O)N[C@H](C)c3ccc([S@+]([O-])CC(=O)O)cc3)n(C)c2c1` [Example 12-005, 2-[(R)-4-[(1R)-1-[(4-chloro-1,6-dimethyl-1H-indol-2-yl)formamido]ethyl]benzenesulfinyl]acetic acid] was tested. Which IC50 did it give?
Answer: 0.017 µM

Question: Which IC50 does the source give for `Cc1cc(Cl)c2cc(C(=O)N[C@H](CO)c3ccc(S(=O)(=O)CC(=O)OC4CCOCC4)cc3)n(C)c2c1` [Example 09-028, oxan-4-yl 2-{4-[(1S)-1-[(4-chloro-1,6-dimethyl-1H-indol-2-yl)formamido]-2-hydroxyethyl]benzenesulfonyl}acetate] here?
Answer: 0.23 µM

same assay, conditions: 500 μM NAD/500 μM 3-PG; read-out: IC50 (PHGDH_500_NAD/3-PG)

Question: How did the IC50 turn out when `C[C@@H](NC(=O)c1cc(-c2cccc3cc[nH]c23)nn1C)c1ccc(S(=O)(=O)CC(=O)O)cc1` [Example 04-003, 2-{4-[(1R)-1-{[3-(1H-indol-7-yl)-1-methyl-1H-pyrazol-5-yl]formamido}ethyl]benzenesulfonyl}acetic acid] was run?
Answer: 0.087 µM

Question: How did the IC50 turn out when `Cc1cc2c(cc(C(=O)N[C@H](CO)c3ccc(S(=O)(=O)CC(=O)OCCCO)cc3)n2C)c(F)c1F` [Example 09-038, 3-hydroxypropyl 2-{4-[(1S)-1-[(4,5-difluoro-1,6-dimethyl-1H-indol-2-yl)formamido]-2-hydroxyethyl]benzenesulfonyl}acetate] was run?
Answer: 0.255 µM

Question: With `COC(=O)C[S+]([O-])c1ccc([C@@H](C)NC(=O)c2cc3c(Cl)c(Cl)c(C)cc3n2C)cc1` (stereo partly drawn) [Example 11-001, methyl 2-{4-[(1R)-1-[(4,5-dichloro-1,6-dimethyl-1H-indol-2-yl)formamido]ethyl]benzenesulfinyl}acetate] as the molecule, how does the IC50 read?
Answer: 0.436 µM

Question: With `Cc1cc(Cl)c2cc(C(=O)N[C@H](C)c3ccc(S(=O)(=O)CC(=O)O)cc3)n(C)c2c1C` [Example 03-003, 2-{4-[(1R)-1-[(4-chloro-1,6,7-trimethyl-1H-indol-2-yl)formamido]ethyl]benzenesulfonyl}acetic acid] as the molecule, how does the IC50 read?
Answer: 0.022 µM

Question: Which IC50 does the source give for `Cc1cc2c(cc(C(=O)N[C@H](CO)c3ccc([S@+]([O-])CC(=O)OC(C)C)cc3)n2C)c(F)c1F` [Example 13-006, propan-2-yl 2-[(R)-4-[(1S)-1-[(4,5-difluoro-1,6-dimethyl-1H-indol-2-yl)formamido]-2-hydroxyethyl]benzenesulfinyl]acetate] here?
Answer: 2.08 µM

Question: For `Cc1cc2c(cc(C(=O)N[C@H](C)c3ccc(S(=O)(=O)C4CCCOC4=O)cc3)n2C)c(Cl)c1Cl` (stereo partly drawn) [Example 05-025, 4,5-dichloro-1,6-dimethyl-N-[(1R)-1-{4-[(2-oxooxan-3-yl)sulfonyl]phenyl}ethyl]-1H-indole-2-carboxamide], which IC50 is on record?
Answer: 0.02 µM

Question: For `Cc1cc2c(cc(C(=O)N[C@H](CO)c3ccc([S@+]([O-])CC(=O)O)cc3)n2C)c(Cl)c1Cl` [Example 12-002, 2-[(R)-4-[(1S)-1-[(4,5-dichloro-1,6-dimethyl-1H-indol-2-yl)formamido]-2-hydroxyethyl]benzenesulfinyl]acetic acid], which IC50 is on record?
Answer: 0.004 µM

Question: `Cc1cc(Cl)c2cc(C(=O)N[C@H](CO)c3ccc([S+]([O-])CC(=O)OC(C)C)cc3)n(C)c2c1` (stereo partly drawn) [Example 13-008, propan-2-yl 2-{4-[(1S)-1-[(4-chloro-1,6-dimethyl-1H-indol-2-yl)formamido]-2-hydroxyethyl]benzenesulfinyl}acetate] was tested. Which IC50 did it give?
Answer: 1.2 µM

Question: Which IC50 does the source give for `Cc1cc(Cl)c2cc(C(=O)N[C@H](C)c3ccc([S@+]([O-])CC(=O)O)cc3)n(C)c2c1` [Example 12-005, 2-[(R)-4-[(1R)-1-[(4-chloro-1,6-dimethyl-1H-indol-2-yl)formamido]ethyl]benzenesulfinyl]acetic acid] here?
Answer: 0.028 µM
